One block for each compound: values may come before it.
Test system: 922993-354-T-J3-PDC complex spheroids, viability, % test/control
Test: Anticancer human tumor 922993-354-T-J3-PDC patient-derived endometrial carcinoma cell line growth inhibition [CLK]
Details: for IC50: curve of first compound; for viability, T/C: stronger effect = lower value
In short: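 Patient-derived tumor cells grown as complex spheroids with HUVEC endothelial cells and mesenchymal stem cells, treated with drug combinations. Concentrations descend in half-log steps from near clinical Cmax, or from 10 microM if Cmax unknown.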

[1] = second compound 0.0316 µM, first compound 0.0316 µM
[2] = second compound 0.0316 µM, first compound 0.1 µM
[3] = second compound 0.0316 µM, first compound 0.316 µM
[4] = second compound 0.0316 µM, first compound 1 µM
[5] = second compound 0.0316 µM, first compound 3.16 µM
[6] = second compound 0.0316 µM, first compound 10 µM
[7] = second compound 0.1 µM, first compound 0.0316 µM
[8] = second compound 0.1 µM, first compound 0.1 µM
[9] = second compound 0.1 µM, first compound 0.316 µM
[10] = second compound 0.1 µM, first compound 1 µM
[11] = second compound 0.1 µM, first compound 3.16 µM
[12] = second compound 0.1 µM, first compound 10 µM
[13] = second compound 0.316 µM, first compound 0.0316 µM
[14] = second compound 0.316 µM, first compound 0.1 µM
[15] = second compound 0.316 µM, first compound 0.316 µM
[16] = second compound 0.316 µM, first compound 1 µM
[17] = second compound 0.316 µM, first compound 3.16 µM
[18] = second compound 0.316 µM, first compound 10 µM
[19] = second compound 1 µM, first compound 0.0316 µM
[20] = second compound 1 µM, first compound 0.1 µM
[21] = second compound 1 µM, first compound 0.316 µM
[22] = second compound 1 µM, first compound 1 µM
[23] = second compound 1 µM, first compound 3.16 µM
[24] = second compound 1 µM, first compound 10 µM
[25] = second compound 3.16 µM, first compound 0.0316 µM
[26] = second compound 3.16 µM, first compound 0.1 µM
[27] = second compound 3.16 µM, first compound 0.316 µM
[28] = second compound 3.16 µM, first compound 1 µM
[29] = second compound 3.16 µM, first compound 3.16 µM
[30] = second compound 3.16 µM, first compound 10 µM
[31] = second compound 10 µM, first compound 0.0316 µM
[32] = second compound 10 µM, first compound 0.1 µM
[33] = second compound 10 µM, first compound 0.316 µM
[34] = second compound 10 µM, first compound 1 µM
[35] = second compound 10 µM, first compound 3.16 µM
[36] = second compound 10 µM, first compound 10 µM
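Further: spheroids exposed to the agents for 7 days before readout.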

IC50 (second compound 0.0316 µM): > 10000 nM
IC50 (second compound 0.1 µM): > 10000 nM
IC50 (second compound 0.316 µM): > 10000 nM
IC50 (second compound 1 µM): < 31.6 nM
IC50 (second compound 3.16 µM): < 31.6 nM
IC50 (second compound 10 µM): < 31.6 nM
Structure (SMILES): C=CC(=O)N1CCN(c2nc(=O)n(-c3c(C)ccnc3C(C)C)c3nc(-c4c(O)cccc4F)c(F)cc23)C(C)C1 (stereo unspecified) + CNC(=O)c1ccc(Nc2nc(OC3CCCC3)c3c(-c4ccc5nc(C)oc5c4)c[nH]c3n2)c(OC)c1
viability, T/C [1]: 106%
viability, T/C [2]: 105%
viability, T/C [3]: 102%
viability, T/C [4]: 103%
viability, T/C [5]: 106%
viability, T/C [6]: 78.6%
viability, T/C [7]: 86.2%
viability, T/C [8]: 104%
viability, T/C [9]: 101%
viability, T/C [10]: 103%
viability, T/C [11]: 103%
viability, T/C [12]: 94.5%
viability, T/C [13]: 66.9%
viability, T/C [14]: 69%
viability, T/C [15]: 64%
viability, T/C [16]: 61.1%
viability, T/C [17]: 69.3%
viability, T/C [18]: 47.5%
viability, T/C [19]: 33.8%
viability, T/C [20]: 32.8%
viability, T/C [21]: 34.6%
viability, T/C [22]: 36.2%
viability, T/C [23]: 41.4%
viability, T/C [24]: 44.8%
viability, T/C [25]: 34.3%
viability, T/C [26]: 31.2%
viability, T/C [27]: 30.6%
viability, T/C [28]: 33.3%
viability, T/C [29]: 36.4%
viability, T/C [30]: 38.1%
viability, T/C [31]: 27.6%
viability, T/C [32]: 28.6%
viability, T/C [33]: 31.9%
viability, T/C [34]: 33%
viability, T/C [35]: 34.1%
viability, T/C [36]: 37.3%

IC50 (second compound 0.0316 µM): > 10000 nM
IC50 (second compound 0.1 µM): > 10000 nM
IC50 (second compound 0.316 µM): 650 nM
IC50 (second compound 1 µM): < 31.6 nM
IC50 (second compound 3.16 µM): < 31.6 nM
IC50 (second compound 10 µM): < 31.6 nM
Structure (SMILES): CCCS(=O)(=O)Nc1ccc(F)c(C(=O)c2c[nH]c3ncc(-c4ccc(Cl)cc4)cc23)c1F + CNC(=O)c1ccc(Nc2nc(OC3CCCC3)c3c(-c4ccc5nc(C)oc5c4)c[nH]c3n2)c(OC)c1
viability, T/C [1]: 96.5%
viability, T/C [2]: 93.9%
viability, T/C [3]: 109%
viability, T/C [4]: 103%
viability, T/C [5]: 90.9%
viability, T/C [6]: 74.4%
viability, T/C [7]: 110%
viability, T/C [8]: 103%
viability, T/C [9]: 109%
viability, T/C [10]: 113%
viability, T/C [11]: 85.2%
viability, T/C [12]: 67.6%
viability, T/C [13]: 70.8%
viability, T/C [14]: 73.4%
viability, T/C [15]: 57.9%
viability, T/C [16]: 46.5%
viability, T/C [17]: 49.1%
viability, T/C [18]: 40.2%
viability, T/C [19]: 40.2%
viability, T/C [20]: 32.9%
viability, T/C [21]: 32.8%
viability, T/C [22]: 35.4%
viability, T/C [23]: 31.8%
viability, T/C [24]: 24.3%
viability, T/C [25]: 32%
viability, T/C [26]: 31.3%
viability, T/C [27]: 30.3%
viability, T/C [28]: 30.2%
viability, T/C [29]: 27.7%
viability, T/C [30]: 24%
viability, T/C [31]: 30.3%
viability, T/C [32]: 31.7%
viability, T/C [33]: 27.4%
viability, T/C [34]: 29.6%
viability, T/C [35]: 26.7%
viability, T/C [36]: 23.1%

IC50 (second compound 0.0316 µM): 6370 nM
IC50 (second compound 0.1 µM): 6790 nM
IC50 (second compound 0.316 µM): 2250 nM
IC50 (second compound 1 µM): < 31.6 nM
IC50 (second compound 3.16 µM): < 31.6 nM
IC50 (second compound 10 µM): < 31.6 nM
Structure (SMILES): COC1C=CCC(C)C(C)S(=O)(=O)NC(=O)c2ccc3c(c2)N(CC2CCC21)CC1(CCCc2cc(Cl)ccc21)CO3 (stereo unspecified) + CNC(=O)c1ccc(Nc2nc(OC3CCCC3)c3c(-c4ccc5nc(C)oc5c4)c[nH]c3n2)c(OC)c1
viability, T/C [1]: 111%
viability, T/C [2]: 117%
viability, T/C [3]: 104%
viability, T/C [4]: 98.9%
viability, T/C [5]: 90.4%
viability, T/C [6]: 25.6%
viability, T/C [7]: 114%
viability, T/C [8]: 99.6%
viability, T/C [9]: 107%
viability, T/C [10]: 105%
viability, T/C [11]: 103%
viability, T/C [12]: 23%
viability, T/C [13]: 64.6%
viability, T/C [14]: 70.2%
viability, T/C [15]: 66.1%
viability, T/C [16]: 57%
viability, T/C [17]: 47.5%
viability, T/C [18]: 17.9%
viability, T/C [19]: 33.7%
viability, T/C [20]: 39%
viability, T/C [21]: 32.1%
viability, T/C [22]: 27.7%
viability, T/C [23]: 21.2%
viability, T/C [24]: 11%
viability, T/C [25]: 27.3%
viability, T/C [26]: 30.2%
viability, T/C [27]: 25.7%
viability, T/C [28]: 20.8%
viability, T/C [29]: 16.5%
viability, T/C [30]: 9.29%
viability, T/C [31]: 29.8%
viability, T/C [32]: 25.2%
viability, T/C [33]: 23.3%
viability, T/C [34]: 17.3%
viability, T/C [35]: 13.4%
viability, T/C [36]: 10.7%

Source: PubChem BioAssay AID2060606 (Molecular Pharmacology Branch, DTP, NCI, 2025)
